Read-outs that look alike come from different tables or passages of the source.
Tests used:
[1] = system: A375 melanoma cells; assay: MTT cell viability assay, A375; details: Homo sapiens;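 also: Read-out is formazan absorbance at 570 nm after 2 h with MTT, with compounds in at most 0.1% v/v DMSO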
[2] = in vitro; details: human
Method: (§1) The MTT colorimetric assay was performed as a preliminary evaluation of the cytotoxicity of the selected flavonoids according to the method described and validated by Strawa et al. [21]. Briefly, melanoma cells and fibroblasts were seeded in 96-well microplates at a density of 1 × 10^4 cells per well. Fibroblasts were used as a control cell line in order to assess the selectivity of the compounds. […] Subsequently, the cells were washed with PBS, incubated with MTT solution for 2 h, and lysed with dimethyl sulfoxide (DMSO) supplemented with 1% (v/v) Sorensen’s glycine buffer. The absorbance was measured using a microplate reader (EPOCH 2, BioTek, Winooski, VT, USA) at a wavelength of 570 nm. The compounds were used at a final DMSO concentration of no more than 0.1% (v/v) in each well. The results were generated from at least three independent experiments. […] The IC50 values were calculated with GraphPad Prism 9 software (GraphPad Software, San Diego, CA, USA).

[3] = system: A375 melanoma cells; assay: Neutral red uptake (NRU) assay, A375; details: Homo sapiens, read-out: IC50, cytotoxic activity, NRU assay
[4] = Neutral red uptake (NRU) assay, normal cells; details: human, human skin fibroblasts (CCD25Sk)
Method: (§2) The NRU (neutral red uptake) was conducted as previously described by Szoka and co-workers, with some modifications [22]. Briefly, melanoma cells and fibroblasts were seeded in microplates at the density of 1 × 10^4 cells per well and allowed to adhere for 24 h. […] After treatment, the culture medium was replaced with a neutral red solution (40 µg/mL). An additional 2 h of incubation was performed. The neutral red solution was then removed and the neutral red accumulated in the cells was dissolved in 50% EtOH with 1% of the glacial acetic acid. The absorbance was estimated at 540 nm and IC50 values were calculated using GraphPad Prism software (GraphPad Software, San Diego, CA, USA).

[5] = system: C32 melanoma cells; assay: MTT cell viability assay, C32; details: Homo sapiens, read-out: IC50, cytotoxic activity, MTT test;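 also: MTT added for 2 h, cells lysed in DMSO, absorbance read at 570 nm, compound vehicle kept at or below 0.1% DMSO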
Method: as §1

[6] = system: C32 melanoma cells; assay: Neutral red uptake (NRU) assay, C32; details: Homo sapiens
Method: as §2

[7] = MTT cell viability assay, normal cells; details: human, human skin fibroblasts (CCD25Sk);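 also: fibroblasts served as non-cancer comparison line for selectivity versus melanoma cells, MTT reduction read as absorbance at 570 nm after 2 h dye exposure, compounds in ≤0.1% DMSO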
Method: as §1

[8] = system: C32 melanoma cells; assay: [3H]-thymidine incorporation (DNA biosynthesis), C32; format: cell-based, human; details: read-out: IC50, effect on DNA biosynthesis ([3H]-thymidine incorporation)
[9] = system: human skin fibroblasts (CCD25Sk); assay: [3H]-thymidine incorporation (DNA biosynthesis), normal cells; format: cell-based; details: Homo sapiens, Skin fibroblast, read-out: IC50, effect on DNA biosynthesis ([3H]-thymidine incorporation)
Method: (§3) The inhibition of DNA biosynthesis was evaluated using [^3H]-thymidine incorporation into the DNA of melanoma cells (C32, A375) and fibroblasts treated with the studied compounds [21]. The cells were briefly seeded in 24-well plates (1 × 10^5 cells per well) and allowed to adhere for 24 h. […] After incubation for 24, 48, and 72 h, the cells were rinsed three times with PBS. Then, cells were lysed in 1 mL of 0.1 M NaOH containing 1% SDS. The cell lysate was moved into scintillation vials containing scintillation liquid, and the radioactivity of the samples was measured using a liquid scintillation analyzer (Perkin-Elmer, Waltham, MA, USA).

[10] = system: caspases, PARP, phospho-RSK in C32 cells; assay: Western immunoblot of apoptosis mediators and RSK, C32; format: cell-based, human; details: C32, 48 h, Western blot
Method: (§4) Floating cells were harvested by centrifugation of the conditioned media (300× g, 5 min). Cell pellet and adherent cells were lysed in a cell lysis buffer supplemented with inhibitors of proteases and phosphatases. The cell lysate was sonicated (2 × 10 s) on ice with an ultrasonic homogenizer (UP200S, Hielscher Ultrasonics GmbH, Teltow, Germany) and centrifuged for 10 min at 10,000× g. The supernatant was collected and stored in a freezer at −70 °C. Protein concentrations in the cell supernatants were determined using a Lowry assay. Obtained proteins were dissolved on SDS-PAGE gels (7.5%, 10%, or 12%) using the Mini-Protean Tetra system. The proteins were transferred to nitrocellulose membranes using the Mini Trans-Blot Cell wet blotting system. The 5% skim milk was used to block membranes. Then, membranes were probed for 24 h at 4 °C with the following antibodies: anti-phospho-RSK, anti-RSK, anti-PARP, anti-cleaved PARP, anti-caspase-8, anti-caspase-9, anti-caspase-7, anti-caspase-3, and anti-actin. Membranes were incubated with an ECL-HRP (enhanced chemiluminescence-horseradish peroxidase) substrate, and the signal was spotted using the BioSpectrum Imaging System and VisionWorks LS software 7.0 (Ultra-Violet Products, Ltd., San Gabriel, CA, USA). The intensity of the bands was quantified by densitometric analysis using UVIBand software, version 15.08d (Uvitec Ltd., Cambridge, UK).

[11] = system: A375 melanoma cells; assay: [3H]-thymidine incorporation (DNA biosynthesis), A375; format: cell-based, human; details: read-out: IC50, effect on DNA biosynthesis ([3H]-thymidine incorporation)
Method: as §3

[12] = system: A375 melanoma cells; assay: Apoptosis assay, annexin V/PI flow cytometry, A375; format: cell-based, human; details: A375, 25 µM, 48 h
Method: Firstly, cells were placed in 6-well plates at a density of 1 × 10^5 cells per well and allowed to adhere for 24 h. Then, cells were treated with 25 µM, 50 µM, and 100 μM of the selected flavonoids (1, 6, 15, 16, 17, 37) and incubated for 48 h. Floating and adherent cells were collected and assayed using the manufacturer’s protocol supported by the Dead Cell Apoptosis Kit for flow cytometry. Concisely, 100 μL of an annexin-binding buffer containing a 5 μL annexin V-FITC conjugate solution and 1 μg/mL PI (propidium iodide) was used to disperse the cells. After 15 min of incubation, an additional 400 μL of the mentioned buffer was added. The cells were analyzed with a DxFLEX flow cytometer (Beckman Coulter, Brea, CA, USA).

[13] = system: caspases, PARP, phospho-RSK in A375 cells; assay: Western immunoblot of apoptosis mediators and RSK, A375; format: cell-based, human; details: A375, 48 h, Western blot
Method: as §4

[14] = system: cleaved caspase-3 and cleaved caspase-7 in C32 cells; assay: Immunofluorescence of cleaved caspase-3/-7, C32; format: cell-based, human; details: C32, 48 h, immunofluorescent staining
Method: Firstly, to examine fluorescent signals, cells were placed in the bottom of 96-well black plates at 1 × 10^4 cells per well and permitted to adhere for 24 h. […] After incubating and removing the medium, cells were fixed in 4% paraformaldehyde for 15 min. Later, cells were rinsed three times with PBS and permeabilized with 0.1% Triton X-100 for 5 min at room temperature. The 10% heat-inactivated goat serum in the PBS was used to block non-specific binding. Subsequently, cells were treated with the following antibodies overnight: anti-cleaved caspase 3 and anti-cleaved caspase-7. […] Cell nuclei were stained with Hoechst 33342 and F-actin was stained with Phalloidin-Atto 488. Fluorescent signals were captured using a BD Pathway 855 confocal microscope (Becton Dickinson, Franklin Lakes, NJ, USA). The mean fluorescence intensity was calculated using ImageJ software (National Institutes of Health, Bethesda, Rockville, MD, USA).

[15] = A-375, 24 h, read-out: IC50, cytotoxic activity, MTT test, A375, 24 h
[16] = A-375, 48 h, read-out: IC50, cytotoxic activity, MTT test, A375, 48 h
[17] = A-375, 72 h, read-out: IC50, cytotoxic activity, MTT test, A375, 72 h
[18] = C32, 24 h, read-out: IC50, cytotoxic activity, NRU assay, C32, 24 h
[19] = C32, 48 h, read-out: IC50, cytotoxic activity, NRU assay, C32, 48 h
[20] = C32, 72 h, read-out: IC50, cytotoxic activity, NRU assay, C32, 72 h

Row | IC50 at 24 h [2] [µM] | IC50 at 48 h [2] [µM] | IC50 at 72 h [2] [µM] | IC50 at 24 h [4] [µM] | IC50 at 48 h [4] [µM] | IC50 at 72 h [4] [µM] | Structure (SMILES) | IC50 [1, 15] [µM] | IC50 [1, 16] [µM] | IC50 [1, 17] [µM] | IC50 ([3]; A-375, 24 h) [µM] | IC50 ([3]; A-375, 48 h) [µM] | IC50 ([3]; A-375, 72 h) [µM] | IC50 ([5]; C32, 24 h) [µM] | IC50 ([5]; C32, 48 h) [µM] | IC50 ([5]; C32, 72 h) [µM] | IC50 [6, 18] [µM] | IC50 [6, 19] [µM] | IC50 [6, 20] [µM] | other results
1 | > 200 | > 200 | > 200 | > 200 | > 200 | > 200 | O=C(O)C1OC(Oc2c(-c3ccc(O)cc3)oc3cc(O)cc(O)c3c2=O)C(O)C(O)C1O (stereo not shown) [Compound 21, kaempferol 3-O-glucuronide] | > 200 | > 200 | > 200 | > 200 | > 200 | > 200 | > 200 | > 200 | > 200 | > 200 | > 200 | > 200 | 
2 | > 200 | > 200 | 71.2 ± 4.5 | 100 to 200 | 65.7 ± 4.2 | 76.3 ± 4.7 | O=c1cc(-c2ccccc2)oc2cc(O)cc(O)c12 [Compound 14, chrysin] | 100 to 200 | 66.4 ± 4.5 | 34.4 ± 2.8 | 52.4 ± 3.5 | 34.5 ± 2.3 | 33.1 ± 2.8 | 100 to 200 | 96.4 ± 7 | 58.9 ± 4.5 | 89.2 ± 7.8 | 44.7 ± 3.9 | 25.6 ± 2.4 | 
3 | > 200 | > 200 | > 200 | > 200 | > 200 | > 200 | O=C(O)C1OC(Oc2cc(O)c3c(=O)cc(-c4ccc(O)c(O)c4)oc3c2)C(O)C(O)C1O (stereo not shown) [Compound 8, luteolin 7-O-glucuronide] | > 200 | > 200 | > 200 | > 200 | > 200 | > 200 | > 200 | > 200 | > 200 | > 200 | > 200 | > 200 | 
4 |  |  |  | > 200 | 100 to 200 | 100 to 200 | O=c1cc(-c2ccccc2)oc2ccc(O)c(O)c12 [Compound 15, 5,6-dihydroxyflavone] | 86 ± 6.3 | 36.4 ± 2 | 26.4 ± 1.2 | 53.3 ± 4.6 | 16 ± 1.1 | 13.6 ± 1.1 | 100 to 200 | 47.5 ± 3.5 | 23.5 ± 1.9 | 72.6 ± 5.5 | 18.2 ± 2.1 | 15.4 ± 1.1 | IC50 at 24 h [7]: > 200 µM; IC50 at 48 h [7]: > 200 µM; IC50 at 72 h [7]: > 200 µM; IC50 ([8]; C32, 48 h): 20 ± 1.9 µM; IC50 ([8]; Homo sapiens, C32, C32, 24 h): > 200 µM; IC50 ([8]; Homo sapiens, C32, C32, 48 h): 20.1 ± 0.98 µM; IC50 ([8]; Homo sapiens, C32, C32, 72 h): 20.3 ± 1.2 µM; IC50 ([9]; 24 h): 175 ± 7.6 µM; IC50 ([9]; 48 h): > 200 µM; IC50 ([9]; 72 h): > 200 µM; cleaved PARP and caspase-9 [10]: generated cleaved PARP and caspase-9; IC50 ([11]; A375, 48 h): 32.4 ± 2.4 µM; IC50 ([11]; Homo sapiens, A-375, A375, 24 h): > 200 µM; IC50 ([11]; Homo sapiens, A-375, A375, 48 h): 32.4 ± 0.49 µM; IC50 ([11]; Homo sapiens, A-375, A375, 72 h): 31.4 ± 1.7 µM; level of early apoptotic cells [12]: 42.0 ± 4.5%; level of late apoptotic cells [12]: 8.9 ± 2.2%; expression of cleaved caspase-8 [13]: increased; caspase-3 expression [14]: notably extended

Source: paper PMC10854695, “Using Flavonoid Substitution Status to Predict Anticancer Effects in Human Melanoma Cancers: An In Vitro Study” (Cancers, 2024)
